Measured values taken from US5468727A, “Methods of normalizing metabolic parameters in diabetics” (Board of Regents, The University of Texas System, priority 1993, dated 1995).

How the values were obtained:
[1] = tested on: subjects with early NIDDM; experiment: Gastric emptying study (gamma camera, 99mTc-SC glucose solution) with CCK-8 infusion; format: in vivo, human
From the text: Seven subjects with early NIDDM (diagnosed for less than 2 years) underwent two separate gastric emptying studies. Subjects were five men and two women ranging in age from 33 to 49 and previously diagnosed as diabetic according to current WHO criteria using a 75 g glucose tolerance test (OGTT) with blood sampled fasting and at 2 hr. All patients had been on oral hypoglycemic medication which was discontinued the evening prior to the study. All studies were begun between 7-8 am following a 12 hour fast.
An 18 gauge angiocatheter was placed in one antecubital fossa for blood drawing while another 18 gauge angiocatheter was placed in the other antecubital fossa for a 0.9% (normal saline) infusion ([…]). Gastric emptying studies utilizing a gamma camera (Scintronix USA, Inc., Woburn Mass.) were performed with a modified 0.62M (50 g glucose in 450 ml water) glucose solution. This solution has been used previously in gastric emptying studies (Schwartz, et al., 1990). […]
The subjects were then seated at a 90 degree angle in front of a gamma camera. […] Counts in the stomach region of interest were calculated in each 60 second image. After correcting for radioactive decay, the count rates were converted to a percentage of the maximum count rate recorded. […]

[2] = tested on: subjects with early NIDDM; experiment: Plasma glucose after glucose solution with CCK-8 infusion; format: in vivo, human; conditions: iv CCK-8 infusion
Method: (§1) Blood samples were drawn from the indwelling 18 gauge angiocatheter in the antecubital fossa at 15 min intervals beginning just prior to ingestion of the glucose solution and ending at 120 min. Blood for glucose evaluation was collected in grey-top vacutainer tubes containing potassium oxalate and sodium fluoride. Blood for insulin and C-peptide was collected in red top tubes. Samples for hemoglobin A-1-C, gastric inhibitory polypeptide (GIP) and CCK were collected in lavender top tubes containing EDTA. All glass tubes were from Becton Dickinson Vacutainer Systems, Rutherford, N.J. Glucose analysis were performed on a Paramax instrument (Baxter Healthcare Corp., Irvine, Calif.). Hemoglobin A1C was performed by the micro column test (Bio-Rad, Hercules, Calif. 94547).
(§2) The second study was performed 3 days later. Subjects drank the glucose solution and a gastric emptying study was performed with simultaneous infusion of CCK (Kinevac™, Squibb Diagnostics Princeton, N.J. 08543) at 48 pM/kg/hr.
Infusions of the saline solution for the first test and the CCK solution for the second test were begun 10 min prior to ingestion of the glucose solution.

[3] = tested on: subjects with early NIDDM; experiment: Plasma GIP by radioimmunoassay with CCK-8 infusion; format: in vivo, human; conditions: iv CCK-8 infusion; without CCK-8 420.4 pg/ml; P=0.0032
Method: as §1
(§3) The C-peptide assay was performed by Smith Kline Bioscience Laboratories, Van Nuys, Calif. by radioimmunoassay (Diagnostic Products, Los Angeles, Calif. 90045). The assay for insulin was performed by Smith Kline Bioscience Laboratory, St. Louis, Mo. by radioimmunoassay (Pharmacia Diagnostics, Fairfield, N.J. 07004). Assays for GIP and CCK were performed by radioimmunoassay by the Gastroenterology Unit at Mayo Clinic (Rochester, Minn. 55905) using in-house kits.
(§4) The second study was performed 3 days later. […]

[4] = tested on: subjects with early NIDDM; experiment: Serum insulin by radioimmunoassay with CCK-8 infusion; format: in vivo, human; conditions: iv CCK-8 infusion
Method: as §1, §3, §4

[5] = Plasma CCK by radioimmunoassay with CCK-8 infusion; format: in vivo, human; conditions: during iv CCK-8 infusion; without CCK-8 20.8 pmol/L; P=0.0247
Method: as §1, §3, §4

[6] = tested on: subjects with early NIDDM; experiment: Adverse effects during CCK-8 infusion; format: in vivo, human; conditions: iv CCK-8 infusion, 2 hr
Method: as §2
None of the subjects reported any nausea or abdominal distress during the CCK-8 infusions.

[7] = tested on: obese diabetic Zucker rats; experiment: Gastric emptying by gamma scintigraphy with camostat, diabetic rats; format: in vivo; conditions: diabetic Zucker rats 10 wks old, 1% camostat in 30% glucose solution by gavage; without 38.4±18 min
Method: (§5) Eight male obese Zucker rats of a strain that becomes diabetic by 10 wks of age and 8 matched lean Zucker rats as controls were studied. After overnight fast, rats 10 wks old were fed by gavage a 30% glucose solution ([…] body weight) containing 150 μCi of ^99m Tc-SC. Each rat was tested with and without 1% camostat, a trypsin inhibitor known to stimulate CCK release, in the glucose solution. Gastric emptying was monitored by gamma scintigraphy at 10 min intervals. Fasting and 1 hr postprandial plasma glucose were determined.

lean Zucker rats = experiment: Gastric emptying by gamma scintigraphy with camostat, lean rats; format: in vivo; conditions: lean Zucker rats 10 wks old, 1% camostat in 30% glucose solution by gavage; without 65.1±5.7 min
Method: as §5

[8] = tested on: obese diabetic Zucker rats; experiment: Fasting and 1 hr postprandial plasma glucose with camostat, diabetic rats; format: in vivo; conditions: fasting to 1 hr postprandial, 1% camostat in 30% glucose solution, without Camostat 270-±18 mg/dl
Method: as §5

average plasma CCK-8 excursion [5] [pmol/L] | Compound | gastric half-emptying time ([1]; average, 7 early NIDDM subjects, iv CCK infusion 48 pM/kg/hr, 50 g glucose in 450 ml, without CCK-8 40.9 min, P=0.0042) [min] | average area under the gastric emptying curve during the 2-hr period, relative to the same patients not receiving CCK-8 ([1]; iv CCK-8 infusion, early NIDDM subjects, 2 hr) [%] | average glucose excursion value during the 2-hr period, relative to saline infusion ([2]; 2 hr) [%] | average glucose excursion value during the 2-hr period ([2]; saline 5.6 mmol/liter, P=0.0550) [mmol/L] | average glucose concentration during the 2-hr period following the glucose meal ([2]; saline infusion 17.1, P=0.0073) [mmol/L] | average GIP excursion over the 2 hr period [3] [pg/mL] | average insulin concentration over the 2 hr period, relative to saline infusion ([4]; not statistically significant) [%] | average insulin concentration over the 2 hr period ([4]; without CCK-8 44.2 μU/ml, P=0.1480) [μU/ml] | adverse effects (nausea, abdominal distress) during infusion [6] | gastric half-emptying time [7] [min] | gastric half-emptying time (lean Zucker rats) [min] | incremental increase in plasma glucose [8] [mg/dL]
49.6 | CSCC[C@H](NC(=O)[C@H](Cc1ccc(OS(=O)(=O)O)cc1)NC(=O)[C@@H](N)CC(=O)O)C(=O)NCC(=O)N[C@@H](Cc1c[nH]c2ccccc12)C(=O)N[C@@H](CCSC)C(=O)N[C@@H](CC(=O)O)C(=O)N[C@@H](Cc1ccccc1)C(N)=O [CCK-8, Cholecystokinin-octapeptide] | 94.2 | 175 | 66 | 3.7 | 14.0 | 266.4 | 68 | 30.2 | No adverse effects were reported or observed | – | – | –
– | CN(C)C(=O)COC(=O)Cc1ccc(OC(=O)c2ccc(NC(=N)N)cc2)cc1 [Camostat] | – | – | – | – | – | – | – | – | – | 141 ± 33 | 167 ± 25 | 160 ± 15
